In US12122763B2, “Substituted piperidines for androgen receptor degradation” (UBIX THERAPEUTICS, INC., priority 2020, dated 2024):

Biological target: T1, Androgen Receptor (AR) protein (Homo sapiens, UniProt P10275, T878A)
T1 construct: endogenous in cells; host or cells: LNCaP
Assay: Androgen Receptor (AR) protein degradation assay in LNCaP cells, western blotting
Assay type: cell-based
Conditions: 20 h; for inhibition at 0.01 µM: 0.01 μM compound; for inhibition at 0.1 µM: 0.1 μM compound; for inhibition at 1 µM: 1 μM compound
Outline: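 AR protein level was detected by western blot (ECL) against GAPDH or β-actin controls, with 8 μg lysate protein loaded per lane after BCA quantification. Lysates came from LNCaP cells exposed to test compound for 20 h, following 3 days of growth in RPMI/10% FBS.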

T1 sequence (P10275 whole entry T878A): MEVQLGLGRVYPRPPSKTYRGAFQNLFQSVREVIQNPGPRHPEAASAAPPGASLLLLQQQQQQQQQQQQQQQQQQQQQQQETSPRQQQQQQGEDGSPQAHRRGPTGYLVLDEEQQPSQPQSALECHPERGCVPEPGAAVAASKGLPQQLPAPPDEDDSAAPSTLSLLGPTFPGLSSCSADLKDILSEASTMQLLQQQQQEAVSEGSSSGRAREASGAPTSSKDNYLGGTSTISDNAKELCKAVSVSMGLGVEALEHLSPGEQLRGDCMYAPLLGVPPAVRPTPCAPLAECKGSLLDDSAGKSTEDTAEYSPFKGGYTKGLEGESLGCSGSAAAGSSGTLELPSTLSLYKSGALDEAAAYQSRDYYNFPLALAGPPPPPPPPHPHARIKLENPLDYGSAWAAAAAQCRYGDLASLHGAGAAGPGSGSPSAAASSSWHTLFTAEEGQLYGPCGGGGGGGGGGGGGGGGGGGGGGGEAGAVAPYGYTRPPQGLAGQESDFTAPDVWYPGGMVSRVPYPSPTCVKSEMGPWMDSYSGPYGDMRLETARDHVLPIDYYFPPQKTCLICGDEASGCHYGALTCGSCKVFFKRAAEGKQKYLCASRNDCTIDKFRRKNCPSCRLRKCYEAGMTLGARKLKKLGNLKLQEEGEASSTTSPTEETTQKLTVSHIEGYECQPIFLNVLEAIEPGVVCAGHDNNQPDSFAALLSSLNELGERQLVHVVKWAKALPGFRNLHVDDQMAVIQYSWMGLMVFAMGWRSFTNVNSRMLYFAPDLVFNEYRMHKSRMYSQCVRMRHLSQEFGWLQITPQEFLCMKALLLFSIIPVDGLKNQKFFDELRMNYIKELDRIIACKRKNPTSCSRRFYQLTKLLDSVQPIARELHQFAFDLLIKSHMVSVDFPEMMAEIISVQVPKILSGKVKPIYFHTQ
T1 sequence (Q96SW2 whole entry partner): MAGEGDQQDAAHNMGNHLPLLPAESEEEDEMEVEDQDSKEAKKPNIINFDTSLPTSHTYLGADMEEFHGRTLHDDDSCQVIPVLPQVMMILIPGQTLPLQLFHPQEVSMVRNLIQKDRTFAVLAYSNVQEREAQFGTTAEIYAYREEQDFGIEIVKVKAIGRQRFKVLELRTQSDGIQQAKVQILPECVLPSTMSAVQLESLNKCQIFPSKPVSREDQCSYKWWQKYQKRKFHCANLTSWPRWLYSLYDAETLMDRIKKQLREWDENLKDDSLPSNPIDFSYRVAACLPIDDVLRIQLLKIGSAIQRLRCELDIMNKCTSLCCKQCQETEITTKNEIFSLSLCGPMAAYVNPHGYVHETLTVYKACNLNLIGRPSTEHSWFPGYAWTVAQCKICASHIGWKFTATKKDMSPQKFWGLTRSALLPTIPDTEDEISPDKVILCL

| SMILES | inhibition at 0.01 µM | inhibition at 0.1 µM | inhibition at 1 µM |
| --- | --- | --- | --- |
| N#Cc1ccc(N2CCC(C(=O)Nc3ccc(N4CCC(CN5CCN(C6CCN(c7ccc8c(n7)CN(C7CCC(=O)NC7=O)C8=O)CC6)CC5)CC4)cn3)CC2)cc1C(F)(F)F (stereo not drawn) [Example 75, 1-(4-cyano-3-(trifluoromethyl)phenyl)-N-(5-(4-((4-(1-(6-(2,6-dioxopiperidin-3-yl)-5-oxo-6,7-dihydro-5H-pyrrolo[3,4-b]pyridin-2-yl)piperidin-4-yl)piperazin-1-yl)methyl)piperidin-1-yl)pyridin-2-yl)piperidine-4-carboxamide] | 82% | 97% | 90% |
| N#Cc1ccc(N2CCC(C(=O)Nc3ccc(N4CCC(CN5CCN(C6CCN(c7cccc8c7C(=O)N(C7CCC(=O)NC7=O)C8=O)CC6)CC5)CC4)cn3)CC2)cc1C(F)(F)F (stereo not drawn) [Example 76, 1-(4-cyano-3-(trifluoromethyl)phenyl)-N-(5-(4-((4-(1-(2-(2,6-dioxopiperidin-3-yl)-1,3-dioxoisoindolin-4-yl)piperidin-4-yl)piperazin-1-yl)methyl)piperidin-1-yl)pyridin-2-yl)piperidine-4-carboxamide] | 36% | 85% | 88% |
| N#Cc1ccc(N2CCC(C(=O)Nc3ccc(N4CCC(CN5CC(N6CCN(c7ccc8c(c7)C(=O)N(C7CCC(=O)NC7=O)C8=O)CC6)C5)CC4)cn3)CC2)cc1C(F)(F)F (stereo not drawn) [Example 77, 1-(4-cyano-3-(trifluoromethyl)phenyl)-N-(5-(4-((3-(4-(2-(2,6-dioxopiperidin-3-yl)-1,3-dioxoisoindolin-5-yl)piperazin-1-yl)azetidin-1-yl)methyl)piperidin-1-yl)pyridin-2-yl)piperidine-4-carboxamide] | 46% | 96% | 97% |
| N#Cc1ccc(N2CCC(C(=O)Nc3ccc(N4CCC(CN5CC(N6CCN(c7ccc8c(n7)CN(C7CCC(=O)NC7=O)C8=O)CC6)C5)CC4)cn3)CC2)cc1C(F)(F)F (stereo not drawn) [Example 78, 1-(4-cyano-3-(trifluoromethyl)phenyl)-N-(5-(4-((3-(4-(6-(2,6-dioxopiperidin-3-yl)-5-oxo-6,7-dihydro-5H-pyrrolo[3,4-b]pyridin-2-yl)piperazin-1-yl)azetidin-1-yl)methyl)piperidin-1-yl)pyridin-2-yl)piperidine-4-carboxamide] | 49% | 88% | 71% |
| N#Cc1ccc(N2CCC(C(=O)Nc3ccc(N4CCC(CN5CC(CN6CCN(c7ccc8c(c7)C(=O)N(C7CCC(=O)NC7=O)C8=O)CC6)C5)CC4)cn3)CC2)cc1C(F)(F)F (stereo not drawn) [Example 79, 1-(4-cyano-3-(trifluoromethyl)phenyl)-N-(5-(4-((3-((4-(2-(2,6-dioxopiperidin-3-yl)-1,3-dioxoisoindolin-5-yl)piperazin-1-yl)methyl)azetidin-1-yl)methyl)piperidin-1-yl)pyridin-2-yl)piperidine-4-carboxamide] | 31% | 94% | 95% |
| N#Cc1ccc(N2CCC(C(=O)Nc3ccc(N4CCC(CN5CC(CN6CCN(c7ccc8c(n7)CN(C7CCC(=O)NC7=O)C8=O)CC6)C5)CC4)cn3)CC2)cc1C(F)(F)F (stereo not drawn) [Example 80, 1-(4-cyano-3-(trifluoromethyl)phenyl)-N-(5-(4-((3-((4-(6-(2,6-dioxopiperidin-3-yl)-5-oxo-6,7-dihydro-5H-pyrrolo[3,4-b]pyridin-2-yl)piperazin-1-yl)methyl)azetidin-1-yl)methyl)piperidin-1-yl)pyridin-2-yl)piperidine-4-carboxamide] | 34% | 90% | 57% |
| N#Cc1ccc(N2CCC(C(=O)Nc3ccc(N4CCC(CN5CCC(CN6CCN(c7ccc8c(c7)C(=O)N(C7CCC(=O)NC7=O)C8=O)CC6)CC5)CC4)cn3)CC2)cc1C(F)(F)F (stereo not drawn) [Example 81, 1-(4-cyano-3-(trifluoromethyl)phenyl)-N-(5-(4-((4-((4-(2-(2,6-dioxopiperidin-3-yl)-1,3-dioxoisoindolin-5-yl)piperazin-1-yl)methyl)piperidin-1-yl)methyl)piperidin-1-yl)pyridin-2-yl)piperidine-4-carboxamide] | 44% | 87% | 96% |
| N#Cc1ccc(N2CCC(C(=O)Nc3ccc(N4CCC(CN5CC[C@H](CN6CCN(c7ccc8c(c7)C(=O)N(C7CCC(=O)NC7=O)C8=O)CC6)C5)CC4)cn3)CC2)cc1C(F)(F)F (stereo partly drawn) [Example 82, 1-(4-cyano-3-(trifluoromethyl)phenyl)-N-(5-(4-(((3S)-3-((4-(2-(2,6-dioxopiperidin-3-yl)-1,3-dioxoisoindolin-5-yl)piperazin-1-yl)methyl)pyrrolidin-1-yl)methyl)piperidin-1-yl)pyridin-2-yl)piperidine-4-carboxamide] | 33% | 87% | 95% |
| N#Cc1ccc(N2CCC(C(=O)Nc3ccc(N4CCC(CN5CC[C@@H](CN6CCN(c7ccc8c(c7)C(=O)N(C7CCC(=O)NC7=O)C8=O)CC6)C5)CC4)cn3)CC2)cc1C(F)(F)F (stereo partly drawn) [Example 83, 1-(4-cyano-3-(trifluoromethyl)phenyl)-N-(5-(4-(((3R)-3-((4-(2-(2,6-dioxopiperidin-3-yl)-1,3-dioxoisoindolin-5-yl)piperazin-1-yl)methyl)pyrrolidin-1-yl)methyl)piperidin-1-yl)pyridin-2-yl)piperidine-4-carboxamide] | 25% | 87% | 96% |
| CN(CC1CCN(c2ccc(NC(=O)C3CCN(c4ccc(C#N)c(C(F)(F)F)c4)CC3)nc2)CC1)CC1CCN(c2ccc3c(c2)C(=O)N(C2CCC(=O)NC2=O)C3=O)CC1 (stereo not drawn) [Example 84, 1-(4-cyano-3-(trifluoromethyl)phenyl)-N-(5-(4-((((1-(2-(2,6-dioxopiperidin-3-yl)-1,3-dioxoisoindolin-5-yl)piperidin-4-yl)methyl)(methyl)amino)methyl)piperidin-1-yl)pyridin-2-yl)piperidine-4-carboxamide] | 59% | 89% | 88% |
| N#Cc1ccc(N2CCC(C(=O)Nc3ccc(N4CCC(CN5CC6CN(c7ccc8c(c7)C(=O)N(C7CCC(=O)NC7=O)C8=O)CC6C5)CC4)cn3)CC2)cc1C(F)(F)F (stereo not drawn) [Example 85, 1-(4-cyano-3-(trifluoromethyl)phenyl)-N-(5-(4-((5-(2-(2,6-dioxopiperidin-3-yl)-1,3-dioxoisoindolin-5-yl)hexahydropyrrolo[3,4-c]pyrrol-2(1H)-yl)methyl)piperidin-1-yl)pyridin-2-yl)piperidine-4-carboxamide] | 24% | 89% | 92% |
| N#Cc1ccc(N2CCC(C(=O)Nc3ccc(N4CCC(CCN5CCN(c6ccc7c(c6)C(=O)N(C6CCC(=O)NC6=O)C7=O)CC5)CC4)cn3)CC2)cc1C(F)(F)F (stereo not drawn) [Example 86, 1-(4-cyano-3-(trifluoromethyl)phenyl)-N-(5-(4-(2-(4-(2-(2,6-dioxopiperidin-3-yl)-1,3-dioxoisoindolin-5-yl)piperazin-1-yl)ethyl)piperidin-1-yl)pyridin-2-yl)piperidine-4-carboxamide] | 65% | 94% | 96% |
